Laboratory results as given in patent US20230104936A1, “TRPML MODULATORS” (Casma Therapeutics, Inc., priority 2019, published 2023).

Test system: TFEB
Test: TFEB nuclear translocation assay, HeLa wt cells
Format: cell-based
Settings: Homo sapiens, HeLa, 2 h, 2 hrs compound treatment, Table 1 does not say HeLa wt or TRPML1 KO
Procedure, shortened: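 Using 20× epifluorescence of fixed, anti-TFEB-stained HeLa wt cells treated 2 hrs with compound, nuclear versus perinuclear ring intensity was quantified over four fields per well, yielding AC50 values.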

SMILES | AC50
COCC1(C)CCN(c2ccccc2NS(=O)(=O)Cc2cccc(S(=O)(=O)N(C)C)c2)CC1 [Compound A-680, 3-[({2-[4-(methoxymethyl)-4-methylpiperidin-1-yl]phenyl}sulfamoyl)methyl]-N,N-dimethylbenzene-1-sulfonamide] | 8010 to 9990 nM
COCC1(C)CCN(c2c(F)cccc2NS(=O)(=O)c2ccc(S(=O)(=O)N(C)C)cc2)CC1 [Compound A-681, N4-{3-fluoro-2-[4-(methoxymethyl)-4-methylpiperidin-1-yl]phenyl}-N1,N1-dimethylbenzene-1,4-disulfonamide] | ≤ 2000 nM
COCC1(C)CCN(c2ccccc2NS(=O)(=O)c2ccc3c(c2)COC3(C)C)CC1 [Compound A-682, N-{2-[4-(methoxymethyl)-4-methylpiperidin-1-yl]phenyl}-1,1-dimethyl-1,3-dihydro-2-benzofuran-5-sulfonamide] | 2010 to 8000 nM
COCC1(C)CCN(c2ccccc2NS(=O)(=O)c2ccc3c(c2)C(C)(C)OC3)CC1 [Compound A-683, N-{2-[4-(methoxymethyl)-4-methylpiperidin-1-yl]phenyl}-3,3-dimethyl-1,3-dihydro-2-benzofuran-5-sulfonamide] | 2010 to 8000 nM
COCC1(C)CCN(c2ccccc2NC(c2ccc(S(=O)(=O)N(C)C)cc2)C(F)(F)F)CC1 (stereo not shown) [Compound A-684, N,N-dimethyl-4-(2,2,2-trifluoro-1-((2-(4-(methoxymethyl)-4-methylpiperidin-1-yl)phenyl)amino)ethyl)benzenesulfonamide] | 2010 to 8000 nM
COCC1(C)CCN(c2ccccc2NS(=O)(=O)c2ccc3c(c2)OC2(CCC2)O3)CC1 [Compound A-685, N-{2-[4-(methoxymethyl)-4-methylpiperidin-1-yl]phenyl}spiro[1,3-benzodioxole-2,1′-cyclobutane]-6-sulfonamide] | ≤ 2000 nM
COCC1(F)CCN(c2ccccc2NS(=O)(=O)c2ccc(S(=O)(=O)N(C)C)cc2)CC1 [Compound A-686, N4-[2-[4-fluoro-4-(methoxymethyl)piperidin-1-yl]phenyl}-N1,N1-dimethylbenzene-1,4-disulfonamide] | ≤ 2000 nM
CC1(C)CC2(CCN(c3ccccc3NS(=O)(=O)c3cccc(C4CC4(F)F)c3)CC2)CO1 (stereo not shown) [Compound A-687, 3-(2,2-difluorocyclopropyl)-N-(2-{3,3-dimethyl-2-oxa-8-azaspiro[4.5]decan-8-yl}phenyl)benzene-1-sulfonamide] | ≤ 2000 nM
Cc1ccc(CS(=O)(=O)Nc2ccccc2N2CCC3(CC2)COC(C)(C)C3)c(F)c1 [Compound A-688, N-(2-{3,3-dimethyl-2-oxa-8-azaspiro[4.5]decan-8-yl}phenyl)-1-(2-fluoro-4-methylphenyl)methanesulfonamide] | 2010 to 8000 nM
CC1(C)CC2(CCN(c3ccccc3NS(=O)(=O)c3ccn(C4CC4(F)F)n3)CC2)CO1 (stereo not shown) [Compound A-689, 1-(2,2-difluorocyclopropyl)-N-(2-{3,3-dimethyl-2-oxa-8-azaspiro[4.5]decan-8-yl}phenyl)-1H-pyrazole-3-sulfonamide] | ≥ 10000 nM
CC1(C)CC2(CCN(c3ccccc3NS(=O)(=O)c3ccc4c(c3)CCC(C(F)F)O4)CC2)CO1 (stereo not shown) [Compound A-690, 2-(difluoromethyl)-N-(2-{3,3-dimethyl-2-oxa-8-azaspiro[4.5]decan-8-yl}phenyl)-3,4-dihydro-2H-1-benzopyran-6-sulfonamide] | 2010 to 8000 nM
CC1(C)CC2(CCN(c3ccccc3NS(=O)(=O)c3ccc(Br)cc3)CC2)CO1 [Compound A-691, 4-bromo-N-(2-{3,3-dimethyl-2-oxa-8-azaspiro[4.5]decan-8-yl}phenyl)benzene-1-sulfonamide] | 2010 to 8000 nM
Cc1ccc(S(=O)(=O)Nc2ccccc2N2CCC3(CC2)COC(C)(C)C3)cc1F [Compound A-692, N-(2-{3,3-dimethyl-2-oxa-8-azaspiro[4.5]decan-8-yl}phenyl)-3-fluoro-4-methylbenzene-1-sulfonamide] | 2010 to 8000 nM
